Measurements taken from ChEMBL document CHEMBL1201862, “PubChem BioAssay data set” (2004).
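Values below derive from 48-hour exposures of cells grown in 96-well plates, with endpoints linearly interpolated between the two concentrations bracketing the appropriate inhibition level. Here, GI50 denotes the concentration required for 50% inhibition of growth.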 Active and inactive are the calls of the source. Cut-off read from the data, not from the text of the source: active = GI50 up to about 1.1 µM and inactive = higher.

Columns and labels:
Test in all cases: NCI tumour cell line growth inhibition, 48 h
HCT-15 = system: HCT-15
A498 = system: A498
SK-MEL-2 = system: SK-MEL-2
TK-10 = system: TK-10
SNB-19 = system: SNB-19
HCC 2998 = system: HCC 2998
NCI-H23 = system: NCI-H23
MOLT-4 = system: MOLT-4
NCI-H226 = system: NCI-H226
SN12C = system: SN12C
SK-MEL-5 = system: SK-MEL-5
SK-OV-3 = system: SK-OV-3
HT-29 = system: HT-29
UO-31 = system: UO-31
NCI-H522 = system: NCI-H522
HOP-62 = system: HOP-62
SNB-75 = system: SNB-75
LOX IMVI = system: LOX IMVI

SMILES	GI50 (HCT-15) [µM]	GI50 (A498)	GI50 (SK-MEL-2)	GI50 (TK-10)	GI50 (SNB-19)	GI50 (HCC 2998)	GI50 (NCI-H23)	GI50 (MOLT-4)	GI50 (NCI-H226)	GI50 (SN12C)	GI50 (SK-MEL-5)	GI50 (SK-OV-3)	GI50 (HT-29)	GI50 (UO-31)	GI50 (NCI-H522)	GI50 (HOP-62)	GI50 (SNB-75)	GI50 (LOX IMVI)
NC(=O)N/N=C(\C(=O)C(=O)Nc1ccc(Cl)c(C(F)(F)F)c1)c1nc2ccc(C(=O)c3ccccc3)cc2nc1O	> 100	36.9 µM (inactive)	> 100 µM (inactive)	> 100 µM (inactive)	> 100 µM (inactive)	> 100 µM (inactive)	97.9 µM (inactive)	35.3 µM (inactive)	47.3 µM (inactive)	99.5 µM (inactive)	44.3 µM (inactive)	85.7 µM (inactive)	95.3 µM (inactive)	31.6 µM (inactive)	46.6 µM (inactive)	–	–	–
O=c1c2cccnc2ncn1CCN1CCCC1	–	–	> 100 µM (inactive)	> 100 µM (inactive)	> 100 µM (inactive)	> 100 µM (inactive)	> 100 µM (inactive)	> 100 µM (inactive)	> 100 µM (inactive)	> 100 µM (inactive)	> 100 µM (inactive)	> 100 µM (inactive)	> 100 µM (inactive)	> 100 µM (inactive)	> 100 µM (inactive)	> 100 µM (inactive)	> 100 µM (inactive)	> 100 µM (inactive)
O=C1C=C(Nc2ccccc2C(=O)CC(=O)C(=O)Nc2ccc(Cl)c(Cl)c2)c2ccccc2C1=O	20.4	> 100 µM (inactive)	30.6 µM (inactive)	–	37.5 µM (inactive)	> 100 µM (inactive)	21.1 µM (inactive)	3.72 µM (inactive)	55.5 µM (inactive)	35.1 µM (inactive)	7.78 µM (inactive)	> 100 µM (inactive)	> 100 µM (inactive)	50.7 µM (inactive)	18.6 µM (inactive)	> 100 µM (inactive)	–	–
COC(=O)C1=C(c2ccc(OC)c(OC)c2)OC(c2cc(OC)c(OC)c(OC)c2)C1 (stereo not drawn)	–	25.6 µM (inactive)	20.1 µM (inactive)	39.2 µM (inactive)	–	> 100 µM (inactive)	99.3 µM (inactive)	–	50.8 µM (inactive)	34.3 µM (inactive)	29.3 µM (inactive)	15.3 µM (inactive)	> 100 µM (inactive)	> 100 µM (inactive)	–	19.7 µM (inactive)	7.31 µM (inactive)	99.5 µM (inactive)
O=C(O)CP(=S)(S)c1ccccc1 (stereo not drawn)	–	> 100 µM (inactive)	> 100 µM (inactive)	> 100 µM (inactive)	> 100 µM (inactive)	–	> 100 µM (inactive)	> 100 µM (inactive)	> 100 µM (inactive)	> 100 µM (inactive)	> 100 µM (inactive)	> 100 µM (inactive)	> 100 µM (inactive)	> 100 µM (inactive)	> 100 µM (inactive)	> 100 µM (inactive)	–	> 100 µM (inactive)
CCC1=NC(CO)[C@H](c2ccccc2)O1 (stereo partly drawn)	> 100	> 100 µM (inactive)	> 100 µM (inactive)	> 100 µM (inactive)	> 100 µM (inactive)	–	> 100 µM (inactive)	–	–	> 100 µM (inactive)	> 100 µM (inactive)	–	> 100 µM (inactive)	–	–	> 100 µM (inactive)	> 100 µM (inactive)	> 100 µM (inactive)
Oc1cc(-c2c[nH]c3ccccc23)nc2cc3c(cc12)OCO3	> 100	> 100 µM (inactive)	> 100 µM (inactive)	> 100 µM (inactive)	> 100 µM (inactive)	> 100 µM (inactive)	> 100 µM (inactive)	> 100 µM (inactive)	> 100 µM (inactive)	> 100 µM (inactive)	> 100 µM (inactive)	–	> 100 µM (inactive)	> 100 µM (inactive)	–	84.3 µM (inactive)	21.6 µM (inactive)	> 100 µM (inactive)
